Target: T1, N-terminal Xaa-Pro-Lys N-methyltransferase 1 (Homo sapiens, UniProt Q9BV86)
T1 sequence (Q9BV86 whole entry): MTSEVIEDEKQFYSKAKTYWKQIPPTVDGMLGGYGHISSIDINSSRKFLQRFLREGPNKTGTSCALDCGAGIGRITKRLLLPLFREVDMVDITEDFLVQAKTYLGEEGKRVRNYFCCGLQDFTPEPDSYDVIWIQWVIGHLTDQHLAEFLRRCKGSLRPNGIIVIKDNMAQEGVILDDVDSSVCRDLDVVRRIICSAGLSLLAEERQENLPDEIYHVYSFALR
Assay: Not found

IC50: 95 nM
Structure (SMILES): N=C(N)NCCC[C@H](NC(=O)[C@H](CCCCN)N1CCC[C@H]1C(N)=O)C(=O)N[C@@H](Cc1c[nH]c2ccccc12)C(N)=O [US12479887, Compound 43]

Reference: BindingDB's records for patent US12479887 (Purdue Research Foundation, 2025)
